Assay results taken from ChEMBL document CHEMBL1201862, “PubChem BioAssay data set” (2004).
Active and inactive are the calls of the source. For most assays here, no stated cut-off is given here; in the data, actives have a measured EC50 and inactives only a lower limit.

Columns and labels:
[1] = biological target: Peroxisome proliferator-activated receptor gamma/Nuclear receptor coactivator 1 (Homo sapiens, UniProt P37231); assay: (§1) TR-FRET dose response biochemical High Throughput Screening assay for agonists of the steroid receptor coactivator 1 (SRC-1) recruitment by the peroxisome proliferator-activated receptor gamma (PPAR gamma): non-selective agonists. [Related pubchem assays (depositor defined):AID1300, AID1808, AID504735, AID631]; type: protein assay
Peroxisome proliferator-activated receptor gamma/Nuclear receptor coactivator 1, sequence (P37231 whole entry): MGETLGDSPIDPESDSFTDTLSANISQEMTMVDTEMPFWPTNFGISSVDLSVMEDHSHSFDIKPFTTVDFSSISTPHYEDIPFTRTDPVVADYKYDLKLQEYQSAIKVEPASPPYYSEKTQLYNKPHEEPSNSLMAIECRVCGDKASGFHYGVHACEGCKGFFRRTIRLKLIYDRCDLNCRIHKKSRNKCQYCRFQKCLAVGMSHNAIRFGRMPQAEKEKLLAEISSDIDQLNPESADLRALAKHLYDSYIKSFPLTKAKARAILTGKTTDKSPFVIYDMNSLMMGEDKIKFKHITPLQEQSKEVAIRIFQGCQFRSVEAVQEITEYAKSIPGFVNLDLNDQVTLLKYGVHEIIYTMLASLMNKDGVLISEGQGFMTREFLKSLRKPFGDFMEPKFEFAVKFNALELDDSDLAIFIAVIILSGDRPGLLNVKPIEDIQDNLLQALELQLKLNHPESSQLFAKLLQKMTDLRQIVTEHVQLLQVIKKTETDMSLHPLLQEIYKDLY
Peroxisome proliferator-activated receptor gamma/Nuclear receptor coactivator 1, sequence (Q15788 whole entry, further chain): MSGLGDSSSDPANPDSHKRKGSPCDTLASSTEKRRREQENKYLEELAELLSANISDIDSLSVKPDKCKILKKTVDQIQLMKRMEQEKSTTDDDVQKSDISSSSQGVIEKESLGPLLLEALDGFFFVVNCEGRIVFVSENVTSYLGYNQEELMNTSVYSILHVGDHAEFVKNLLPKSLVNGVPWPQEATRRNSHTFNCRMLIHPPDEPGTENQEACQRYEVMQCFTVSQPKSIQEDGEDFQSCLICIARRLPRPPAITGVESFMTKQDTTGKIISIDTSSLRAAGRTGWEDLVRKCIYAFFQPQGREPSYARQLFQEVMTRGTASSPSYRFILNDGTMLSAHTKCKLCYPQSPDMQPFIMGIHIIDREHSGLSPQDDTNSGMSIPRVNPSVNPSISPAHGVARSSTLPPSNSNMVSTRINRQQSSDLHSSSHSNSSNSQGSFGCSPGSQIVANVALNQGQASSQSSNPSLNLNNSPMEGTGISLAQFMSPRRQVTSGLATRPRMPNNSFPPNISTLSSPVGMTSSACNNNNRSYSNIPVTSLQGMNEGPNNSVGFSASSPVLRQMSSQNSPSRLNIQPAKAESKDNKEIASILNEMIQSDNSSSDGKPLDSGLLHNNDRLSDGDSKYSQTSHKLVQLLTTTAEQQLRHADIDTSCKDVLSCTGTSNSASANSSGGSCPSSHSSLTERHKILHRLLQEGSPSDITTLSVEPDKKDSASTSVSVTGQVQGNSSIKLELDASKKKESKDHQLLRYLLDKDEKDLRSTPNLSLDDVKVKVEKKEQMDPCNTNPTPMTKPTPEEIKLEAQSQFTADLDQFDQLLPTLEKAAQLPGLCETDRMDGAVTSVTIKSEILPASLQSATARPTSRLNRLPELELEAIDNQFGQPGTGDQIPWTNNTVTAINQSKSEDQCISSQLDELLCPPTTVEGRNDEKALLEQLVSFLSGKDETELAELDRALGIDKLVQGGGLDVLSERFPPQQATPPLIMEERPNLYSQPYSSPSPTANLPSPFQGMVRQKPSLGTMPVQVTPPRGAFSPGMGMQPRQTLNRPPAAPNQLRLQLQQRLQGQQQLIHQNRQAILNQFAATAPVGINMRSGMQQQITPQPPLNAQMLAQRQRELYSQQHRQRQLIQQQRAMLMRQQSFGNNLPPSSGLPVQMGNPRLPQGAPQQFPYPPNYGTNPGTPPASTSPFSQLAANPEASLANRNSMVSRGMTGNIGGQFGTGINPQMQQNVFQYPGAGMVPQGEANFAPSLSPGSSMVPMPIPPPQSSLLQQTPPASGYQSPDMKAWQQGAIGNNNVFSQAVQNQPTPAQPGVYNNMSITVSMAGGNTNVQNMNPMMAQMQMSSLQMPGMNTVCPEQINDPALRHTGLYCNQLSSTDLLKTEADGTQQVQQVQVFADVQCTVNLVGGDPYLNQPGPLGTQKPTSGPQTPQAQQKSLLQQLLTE

[2] = biological target: Peroxisome proliferator-activated receptor gamma/Nuclear receptor coactivator 3 (Homo sapiens, UniProt P37231); assay: as §1, with “3 (SRC-3)” for “1 (SRC-1)”, “assays: 1301 (Confirmation screen.), 1048 (Primary screen.)]” for “assays (depositor defined):AID1300, AID1808, AID504735, AID631]”; type: functional
Peroxisome proliferator-activated receptor gamma/Nuclear receptor coactivator 3, sequence (P37231 whole entry): as the sequence (P37231 whole entry) above
Peroxisome proliferator-activated receptor gamma/Nuclear receptor coactivator 3, sequence (Q9Y6Q9 whole entry, further chain): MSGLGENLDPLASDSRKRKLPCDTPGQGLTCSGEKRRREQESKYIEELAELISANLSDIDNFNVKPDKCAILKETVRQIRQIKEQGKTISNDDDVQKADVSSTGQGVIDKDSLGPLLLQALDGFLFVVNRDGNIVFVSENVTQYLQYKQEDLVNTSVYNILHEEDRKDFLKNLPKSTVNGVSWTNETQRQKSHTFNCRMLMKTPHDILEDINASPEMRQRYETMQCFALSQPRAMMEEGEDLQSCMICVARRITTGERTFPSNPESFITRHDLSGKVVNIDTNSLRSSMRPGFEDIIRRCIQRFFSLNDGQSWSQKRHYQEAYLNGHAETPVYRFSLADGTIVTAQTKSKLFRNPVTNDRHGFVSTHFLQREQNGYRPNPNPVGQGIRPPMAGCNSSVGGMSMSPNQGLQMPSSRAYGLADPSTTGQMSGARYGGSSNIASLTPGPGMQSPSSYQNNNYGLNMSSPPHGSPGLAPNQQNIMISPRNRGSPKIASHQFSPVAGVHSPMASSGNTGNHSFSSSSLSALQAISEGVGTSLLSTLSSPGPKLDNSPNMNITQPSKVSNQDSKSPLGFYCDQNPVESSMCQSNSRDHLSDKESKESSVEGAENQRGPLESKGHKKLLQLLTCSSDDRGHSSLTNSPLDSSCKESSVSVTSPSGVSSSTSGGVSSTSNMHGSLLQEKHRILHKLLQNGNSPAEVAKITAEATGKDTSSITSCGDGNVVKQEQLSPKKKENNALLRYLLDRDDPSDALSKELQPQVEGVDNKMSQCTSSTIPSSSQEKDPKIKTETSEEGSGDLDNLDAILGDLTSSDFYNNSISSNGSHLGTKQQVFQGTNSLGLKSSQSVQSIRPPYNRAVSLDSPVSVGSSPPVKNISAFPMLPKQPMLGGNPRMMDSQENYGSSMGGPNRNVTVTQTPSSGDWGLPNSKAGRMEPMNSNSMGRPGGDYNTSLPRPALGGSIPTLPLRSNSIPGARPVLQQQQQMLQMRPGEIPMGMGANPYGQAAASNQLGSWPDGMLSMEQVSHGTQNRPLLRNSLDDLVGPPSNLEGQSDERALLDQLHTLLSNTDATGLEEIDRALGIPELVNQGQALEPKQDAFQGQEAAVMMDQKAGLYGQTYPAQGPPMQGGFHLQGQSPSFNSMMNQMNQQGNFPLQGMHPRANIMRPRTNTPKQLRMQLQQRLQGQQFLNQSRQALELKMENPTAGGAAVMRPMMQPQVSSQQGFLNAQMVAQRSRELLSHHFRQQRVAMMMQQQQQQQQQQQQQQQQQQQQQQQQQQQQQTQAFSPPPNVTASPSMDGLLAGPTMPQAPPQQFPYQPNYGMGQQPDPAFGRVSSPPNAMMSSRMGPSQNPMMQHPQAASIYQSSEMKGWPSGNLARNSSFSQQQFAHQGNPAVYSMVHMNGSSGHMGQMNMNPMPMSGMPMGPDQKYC

[3] = biological target: Peroxisome proliferator-activated receptor gamma/Nuclear receptor coactivator 2 (Homo sapiens, UniProt P37231); assay: TR-FRET dose response biochemical High Throughput Screening assay for agonists of the steroid receptor coactivator 2 (SRC-2) recruitment by the peroxisome proliferator-activated receptor gamma (PPAR gamma): non-selective agonists. [Related pubchem assays: 1297, 1032 ]; type: functional
[4] = luciferase reporter signal suppression in cells – H4 neuroglioma cells, luminescence, dose response (AID 1990); type: functional, cell-based
[5] = luciferase reporter signal reduction – luminescence, H4-C neuroglioblastoma cells, dose response (AID 2458); type: functional, cell-based;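 further: H4 neuroglioblastoma cells stably carrying a luciferase reporter gene fusion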
BJ [6] = assay: BJ-TERT fibroblast viability loss – cell-based, RAS-independent, luminescence, dose response (AID 1933); type: functional; conditions: Homo sapiens
cells = type: functional, cell-based
[7] = Luminescence Cell-Based Dose Response HTS to Identify Inhibitors of 5'UTR Stem-Loop Driven Prion Protein mRNA Translation in H4 Neuroglioblastoma Cells. [Related pubchem assays: 1827 (Project Summary), 1813 (Primary HTS)]; type: functional
[8] = alpha-synuclein stem-loop luciferase translation blockers – H4 neuroglioma cells, luminescence, confirmation (AID 1988); type: functional, cell-based
BJ [9] = assay: cells; type: functional, cell-based; conditions: Homo sapiens
BJ [10] = assay: BJ-TERT-LT-ST fibroblast viability loss – cell-based, RAS-independent, luminescence, dose response (AID 1935); type: functional; conditions: Homo sapiens;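 further: BJ fibroblasts immortalized with TERT plus LT and ST oncogenes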
[11] = DRD fibroblast viability loss – cell-based, non-viral oncogenic, luminescence, dose response (AID 1934); type: functional; conditions: Homo sapiens
[12] = alpha-synuclein stem-loop translation blockers – luminescence, H4 neuroglioblastoma cells, dose confirmation, confirmation (AID 2454); type: functional, cell-based;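 further: H4 neuroglioblastoma cells carrying an alpha-synuclein 5'UTR luciferase reporter; potency for inhibition of the luciferase signal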
BJ [13] = assay: growth inhibition of engineered Ras-driven BJ cells – cell-based, alamar blue fluorescence, cherrypicked samples, dose response (AID 2631); type: functional; conditions: Homo sapiens;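 further: confirmatory dose-response assay in RAS-dependent BJ fibroblasts engineered with TERT, LT and ST, with cytotoxicity read by fluorescence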
[14] = Luminescence Cell-Based Dose Retest to Confirm Inhibitors of Cancer Stem Cells. [Related pubchem assays (depositor defined):AID2717, AID2721]; type: functional; conditions: Homo sapiens
[15] = HEK-293T cell viability reduction – luminescence, B-cell screen hits, cytotoxicity control for BCR NF-kB inhibitor project, dose response (AID 489021); type: functional, cell-based;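 further: HEK-293T cells carrying an NF-kB luciferase reporter; cells exposed to compound for about 14 hours before viability readout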
CHO = CHO cell viability loss, potency – luminescence, cytotoxicity control for TLR9-MyD88 binding inhibitor project, dose response (AID 588339); type: functional, cell-based, hamster; conditions: Cricetulus griseus;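 further: CHO cells stably coexpressing TLR9 and MyD88 fusions from primary screen; compound exposure lasted 48 hours before viability readout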
[16] = Trypanosoma cruzi growth suppression in host cells – NIH3T3 host cells, beta-gal luminescence, confirmation (AID 2044); type: functional, cell-based;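 further: intracellular parasites grown in NIH/3T3 mouse fibroblasts as host cells; luminescent beta-galactosidase reporter signal from transgenic T. cruzi replicating inside host cells; inhibitors lower the luminescence signal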
[17] = NIH3T3 cell viability loss – ATP luminescence, mouse fibroblasts, counter-screen, dose response (AID 2010); type: functional, cell-based;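 further: cells exposed to compound for about 90 hours before reading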
Beta-galactosidase [18] = biological target: T1, Beta-galactosidase (Escherichia coli, UniProt Q8VNN2); assay: Dose response counterscreen for EBI2 assay utilizing the enzyme, b-galactosidase.; type: functional
T1 sequence (Q8VNN2 whole entry): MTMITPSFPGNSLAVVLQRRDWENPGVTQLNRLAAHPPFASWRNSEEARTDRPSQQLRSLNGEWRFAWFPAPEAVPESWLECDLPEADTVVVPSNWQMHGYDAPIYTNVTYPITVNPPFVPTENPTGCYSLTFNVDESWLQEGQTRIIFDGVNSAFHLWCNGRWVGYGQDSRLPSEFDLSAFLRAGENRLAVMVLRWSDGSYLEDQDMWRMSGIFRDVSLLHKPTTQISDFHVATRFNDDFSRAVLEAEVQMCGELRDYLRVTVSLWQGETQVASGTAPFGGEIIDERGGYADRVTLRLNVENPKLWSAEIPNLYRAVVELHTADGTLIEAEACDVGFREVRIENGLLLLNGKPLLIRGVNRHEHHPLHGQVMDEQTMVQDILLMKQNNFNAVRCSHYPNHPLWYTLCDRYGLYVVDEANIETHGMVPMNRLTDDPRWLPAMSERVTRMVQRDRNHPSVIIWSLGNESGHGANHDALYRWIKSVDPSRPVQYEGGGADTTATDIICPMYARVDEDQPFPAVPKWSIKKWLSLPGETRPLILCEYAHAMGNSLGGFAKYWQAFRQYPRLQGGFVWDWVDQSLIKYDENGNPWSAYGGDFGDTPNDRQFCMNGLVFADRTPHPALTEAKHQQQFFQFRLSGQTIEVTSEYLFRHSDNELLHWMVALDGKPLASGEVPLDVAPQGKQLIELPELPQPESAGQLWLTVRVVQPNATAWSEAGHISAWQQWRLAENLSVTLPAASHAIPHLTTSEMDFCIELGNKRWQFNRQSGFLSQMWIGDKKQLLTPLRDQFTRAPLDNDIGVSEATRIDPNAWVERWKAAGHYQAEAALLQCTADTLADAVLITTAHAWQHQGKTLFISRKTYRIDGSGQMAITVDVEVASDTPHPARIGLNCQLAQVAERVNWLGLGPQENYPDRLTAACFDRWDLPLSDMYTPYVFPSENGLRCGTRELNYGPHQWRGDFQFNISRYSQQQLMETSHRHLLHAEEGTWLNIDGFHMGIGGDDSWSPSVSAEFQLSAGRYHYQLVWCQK

[19] = NIH-3T3 fibroblast cytotoxicity, dose response, cytotoxicity control, cell-based, fluorescence, Alamar Blue, secondary assay (AID 2327); type: functional;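 further: NIH-3T3 mouse fibroblasts cultured with fluconazole at 8 µg/mL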
[20] = fluconazole-exposed Candida albicans growth modulators – fluorescence, retest, confirmation (AID 2467); type: functional, cell-based
[21] = biological target: T2, Serine/threonine-protein phosphatase (Candida dubliniensis (strain CD36 / CBS 7987 / NCPF 3949 / NRRLY-17841) (Yeast), UniProt B9W6M3); assay: blockers of CaCl2-induced CDRE-lacZ signaling – S. cerevisiae, luminescence, secondary, dose response (AID 2388); type: functional, cell-based;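 further: yeast reporter cells carrying a calcineurin-responsive lacZ construct stimulated with calcium chloride; luminescent beta-galactosidase reporter signal in whole cells rather than isolated phosphatase activity; potency for inhibition where a drop in reporter signal means calcineurin blockade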
T2 sequence (B9W6M3 whole entry): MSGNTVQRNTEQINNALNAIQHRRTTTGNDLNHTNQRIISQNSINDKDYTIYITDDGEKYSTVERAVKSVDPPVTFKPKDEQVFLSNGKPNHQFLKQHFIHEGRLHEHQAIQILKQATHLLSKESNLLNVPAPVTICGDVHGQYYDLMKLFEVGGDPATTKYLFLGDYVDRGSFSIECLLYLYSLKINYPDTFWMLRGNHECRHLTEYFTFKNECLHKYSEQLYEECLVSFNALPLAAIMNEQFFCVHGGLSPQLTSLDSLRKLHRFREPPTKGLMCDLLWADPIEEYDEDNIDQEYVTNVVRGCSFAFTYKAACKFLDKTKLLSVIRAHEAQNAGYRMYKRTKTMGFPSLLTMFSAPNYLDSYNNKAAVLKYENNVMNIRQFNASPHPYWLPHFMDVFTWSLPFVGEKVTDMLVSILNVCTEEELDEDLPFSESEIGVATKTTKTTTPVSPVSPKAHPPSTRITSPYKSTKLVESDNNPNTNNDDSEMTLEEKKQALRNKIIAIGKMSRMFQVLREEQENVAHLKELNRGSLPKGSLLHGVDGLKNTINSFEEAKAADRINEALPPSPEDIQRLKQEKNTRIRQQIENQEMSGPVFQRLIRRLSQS

[22] = biological target: ATP-dependent molecular chaperone HSP82 (Candida albicans (strain WO-1) (Yeast), UniProt C4YTQ8); assay: steroid-induced GRE reporter decrease in yeast – S. cerevisiae, luminescence, Hsp90 inhibitor project, dose response (AID 2400); type: functional, cell-based;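 further: beta-galactosidase luminescence from glucocorticoid response element reporter as proxy for Hsp90 function; inhibitor potency where signal loss means Hsp90 inhibition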
Beta-galactosidase [23] = biological target: T1, Beta-galactosidase; assay: PubChem AID 485352; type: functional
[24] = biological target: T3, Type-1 angiotensin II receptor (Homo sapiens, UniProt P30556); assay: antagonism of angiotensin II type 1 receptor – cell-based, uHTS hits, selectivity assay for APJ receptor antagonist project, dose response (AID 463214); type: functional;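 further: antagonist potency against angiotensin II stimulated AT1 response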
T3 sequence (P30556 whole entry): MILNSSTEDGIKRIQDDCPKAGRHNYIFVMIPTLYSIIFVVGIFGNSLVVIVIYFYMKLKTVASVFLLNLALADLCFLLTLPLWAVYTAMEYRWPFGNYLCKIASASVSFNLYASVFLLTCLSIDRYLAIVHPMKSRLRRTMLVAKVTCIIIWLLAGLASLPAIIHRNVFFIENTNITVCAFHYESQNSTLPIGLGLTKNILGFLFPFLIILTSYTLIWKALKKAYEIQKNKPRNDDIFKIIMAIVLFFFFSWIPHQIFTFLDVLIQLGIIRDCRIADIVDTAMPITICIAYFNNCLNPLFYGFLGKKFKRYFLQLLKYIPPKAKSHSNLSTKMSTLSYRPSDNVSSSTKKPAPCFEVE

[25] = A549 cell cytotoxicity, dose response, cytotoxicity control, plate reader, cherry-pick, antagonist series (AID 743412); type: functional, cell-based
[26] = toxicity toward HepG2 liver cells – cell-based, plate reader, cherry-pick, antagonist series, cytotoxicity control, dose response (AID 743416); type: functional
[27] = blockers of bursicon-stimulated LGR2 cAMP reporter – cell-based, HEK293, CRE-luciferase reporter, cherry pick, set 2, dose response (AID 743343); type: functional;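 further: transfected cells were stimulated with diluted bursicon conditioned medium after compound addition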
[28] = blockade of melanocortin 4 receptor signaling – cell-based, plate reader, cherry pick, counter-screen for LGR2 antagonist project, dose response (AID 743444); type: functional;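 further: transfected HEK 293 cells stimulated with alpha-MSH peptide; potency of inhibitors of the alpha-MSH evoked signal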
[29] = viability loss in HEK293 cells – cell-based, plate reader, cherry-picked samples, cytotoxicity control, dose response (AID 743446); type: functional
P388/ADR = assay: cells; type: functional; conditions: Mus musculus
SN12K1 = assay: cells; type: functional; conditions: Homo sapiens
P388 = assay: cells; type: functional; conditions: Mus musculus

Compound: Cc1ccc(S(=O)(=O)c2nc(-c3cccs3)oc2SCC(N)=O)cc1
- EC50 [1]: 7.72 µM (active)
- EC50 [2]: > 79.4 µM (not active)
- EC50 [3]: 8.44 µM (active)

Compound: COc1ccc(S(=O)(=O)N2c3cc(Cl)ccc3Oc3nc4ccccc4nc32)cc1
- EC50 [4]: 3.64 µM (inconclusive)
- EC50 [5]: 2.41 µM (active)
- EC50 (BJ [6]): 6.91 µM (inconclusive)
- EC50 (cells): > 12 µM (not active)
- EC50 [7]: 7.56 µM (active)
- EC50 [8]: < 0.1 µM (active)
- EC50 (BJ [9]): 5.06 µM (active)
- EC50 (BJ [10]): 3.81 µM (active)
- EC50 [11]: 7.55 µM (inconclusive)
- EC50 [12]: > 12 µM (not active)
- EC50 (BJ [13]): < 0.104 µM (active)

Compound: COC(=O)c1c(-c2ccc(N(C)C)cc2)sc2ccc(OC)cc12
- AC50 [14]: 3.3 µM (active)
- IC50 [15]: > 80 µM (inactive)
- IC50 (CHO): > 49.7 µM (inactive)

Compound: CN=C(S)N1N=C(c2ccc(Br)cc2)CC1c1ccc(Br)cc1 (stereo not drawn)
- EC50 [1]: > 2.94 µM (active)
- EC50 [2]: > 26.5 µM (not active)
- EC50 [16]: 1.64 µM (active)
- EC50 [3]: > 8.82 µM (not active)
- EC50 [17]: > 60 µM (not active)
- IC50 (Beta-galactosidase [18]): > 80 µM (inactive)

Compound: C=CCOC(=O)c1sc(NC(=O)c2ccco2)nc1C
- EC50 [19]: > 150 µM (inactive)
- EC50 [20]: 0.544 µM (active)
- EC50 [21]: > 180 µM (inactive)
- EC50 [22]: 29.7 µM (active)

Compound: Cc1ccc(-c2cc3c(nn2)-c2ccccc2C3=O)cc1
- EC50 (Beta-galactosidase [23]): > 40 µM (inactive)
- IC50 [24]: 2.89 µM (active)
- AC50 [25]: 25.5 µM (active)
- AC50 [26]: 35.8 µM (active)
- AC50 [27]: 1.11 µM (active)
- AC50 [28]: 1.65 µM (active)
- AC50 [29]: 18.3 µM (active)

Compound: O=C(NCc1cccnc1)c1ccc(NC(=O)c2ccc(Br)cc2)cc1
- EC50 (BJ [6]): > 150 µM (not active)
- EC50 (BJ [9]): 1.3 µM (inconclusive)
- EC50 (BJ [10]): 14 µM (active)
- EC50 [11]: > 150 µM (not active)
- AC50 [14]: 1.36 µM (active)
- EC50 (BJ [13]): 0.169 µM (active)

Compound: Cc1c2cnccc2c(C)c2c1c1ccccc1n2CCCCCCNCc1ccccc1
- GI50 (P388/ADR): 0.246 µM (active)
- GI50 (SN12K1): 1.02 µM (active)
- GI50 (P388): 0.269 µM (active)
